Laboratory results from US4268685A, “Salicylamide esters and related pharmaceutical composition” (Neopharmed S.p.A., priority 1979, dated 1981).
Values belong to the compound of their own block, whether it stands above or below them.

Legend:
[1] = system: prostaglandine synthetases; assay: forming of prostaglandine synthetases
[2] = in vivo
[3] = plasma content (bioavailability) after administration; settings: in vivo
hot plate test = settings: in vivo
Description: The pharmacological tests, as carried out with the compound of example 3, show: […]

[4] = solubility of the product; assay type: physicochemical
[5] = in vivo, po

Structure (SMILES): COc1ccc2c(c1)c(CC(=O)O)c(C)n2C(=O)c1ccc(Cl)cc1 [indomethacin]
effect on the forming of prostaglandine synthetases [1]: opposite behaviour

Structure (SMILES): CC(C)Cc1ccc(C(C)C(=O)O)cc1 (centres unmarked) [Ibuprofen, 2-(4-isobutyl-phenyl)-propionic acid]
effect on the forming of prostaglandine synthetases [1]: opposite behaviour
Tmax [5]: 1 h

Structure (SMILES): NC(=O)c1ccccc1O [salicylamide]
presence of salicylamide in the plasma [2]: not present in the plasma

Now from value to compound, other results behind:

time for which plasma content remains essentially unchanged ([2]; po): more than 7 hours
Structure (SMILES): CC(C)Cc1ccc(C(C)C(=O)Oc2ccccc2C(N)=O)cc1 (centres unmarked) [Example 3, Ester of salicylamide with 2-(4-isobutyl-phenyl)-propionic acid]
effect on the forming of prostaglandine synthetases [1]: enhanced
time extended action [3]: time extended action
activity at the hot plate test (hot plate test): high activity

solubility in acetone ([4]; acetone): soluble
solubility in alcohol ([4]; alcohol): little soluble
solubility in benzene ([4]; benzene): little soluble
solubility in chloroform ([4]; chloroform): little soluble
solubility in pyridine ([4]; pyridine): soluble
solubility in water ([4]; water): insoluble
Structure (SMILES): COc1ccc2cc([C@H](C)C(=O)Oc3ccccc3C(N)=O)ccc2c1 [Example 1, Ester of salicylamide with 2-(6'-methoxy-2'-naphtyl)-propionic acid]
